Experimental data published in publication PMC10866072, “Design, synthesis, molecular modelling and biological evaluation of novel 6-amino-5-cyano-2-thiopyrimidine derivatives as potent anticancer agents against leukemia and apoptotic inducers” (Journal of Enzyme Inhibition and Medicinal Chemistry, 2024).

Experiments:
[1] = tested on: SW-620; type: cell-based; conditions: one dose 10^-5 M, 48 h
[2] = tested on: NCI-H23; type: cell-based; conditions: one dose 10^-5 M, 48 h
[3] = tested on: UO-31; type: cell-based; conditions: one dose 10^-5 M, 48 h
[4] = tested on: IGROV1; type: cell-based; conditions: one dose 10^-5 M, 48 h
[5] = tested on: OVCAR-3; type: cell-based; conditions: one dose 10^-5 M, 48 h
[6] = tested on: TK-10; type: cell-based; conditions: one dose 10^-5 M, 48 h
[7] = tested on: SR; type: cell-based; conditions: one dose 10^-5 M, 48 h
[8] = tested on: RXF 393; type: cell-based; conditions: one dose 10^-5 M, 48 h
[9] = tested on: SNB-75; type: cell-based; conditions: one dose 10^-5 M, 48 h
[10] = tested on: EKVX; type: cell-based; conditions: one dose 10^-5 M, 48 h
[11] = tested on: 786-0; type: cell-based; conditions: one dose 10^-5 M, 48 h
[12] = tested on: ACHN; type: cell-based; conditions: one dose 10^-5 M, 48 h
[13] = tested on: PC-3; type: cell-based; conditions: one dose 10^-5 M, 48 h
[14] = tested on: NCI-H460; type: cell-based; conditions: one dose 10^-5 M, 48 h
[15] = tested on: HL-60(TB); type: cell-based; conditions: one dose 10^-5 M, 48 h
[16] = tested on: A498; type: cell-based; conditions: one dose 10^-5 M, 48 h
[17] = tested on: SK-MEL-2; type: cell-based; conditions: one dose 10^-5 M, 48 h
[18] = tested on: HCT-15; type: cell-based; conditions: one dose 10^-5 M, 48 h
[19] = tested on: HCC-2998; type: cell-based; conditions: one dose 10^-5 M, 48 h
[20] = tested on: UACC-257; type: cell-based; conditions: one dose 10^-5 M, 48 h
[21] = tested on: KM12; type: cell-based; conditions: one dose 10^-5 M, 48 h
[22] = tested on: SF-268; type: cell-based; conditions: one dose 10^-5 M, 48 h
[23] = tested on: M14; type: cell-based; conditions: one dose 10^-5 M, 48 h
[24] = tested on: SK-MEL-5; type: cell-based; conditions: one dose 10^-5 M, 48 h
[25] = tested on: HT29; type: cell-based; conditions: one dose 10^-5 M, 48 h
[26] = tested on: full NCI 60 cell lines panel
[27] = tested on: MCF7; type: cell-based; conditions: one dose 10^-5 M, 48 h
[28] = tested on: SF-539; type: cell-based; conditions: one dose 10^-5 M, 48 h
[29] = tested on: A549/ATCC; type: cell-based; conditions: one dose 10^-5 M, 48 h
[30] = tested on: K-562; type: cell-based; conditions: one dose 10^-5 M, 48 h
[31] = tested on: U251; type: cell-based; conditions: one dose 10^-5 M, 48 h
[32] = tested on: OVCAR-4; type: cell-based; conditions: one dose 10^-5 M, 48 h
[33] = tested on: MOLT-4; type: cell-based; conditions: one dose 10^-5 M, 48 h
[34] = tested on: T-47D; type: cell-based; conditions: one dose 10^-5 M, 48 h
[35] = tested on: OVCAR-8; type: cell-based; conditions: one dose 10^-5 M, 48 h
[36] = tested on: MALME-3M; type: cell-based; conditions: one dose 10^-5 M, 48 h
[37] = tested on: MDA-MB-435; type: cell-based; conditions: one dose 10^-5 M, 48 h
[38] = tested on: SN12C; type: cell-based, human; conditions: one dose 10^-5 M, 48 h
[39] = tested on: CAKI-1; type: cell-based; conditions: one dose 10^-5 M, 48 h
[40] = tested on: HS 578T; type: cell-based; conditions: one dose 10^-5 M, 48 h; HS 578T
[41] = tested on: SK-OV-3; type: cell-based; conditions: one dose 10^-5 M, 48 h
[42] = tested on: OVCAR-5; type: cell-based; conditions: one dose 10^-5 M, 48 h
[43] = tested on: MDA-MB-231/ATCC; type: cell-based; conditions: one dose 10^-5 M, 48 h
[44] = tested on: DU-145; type: cell-based; conditions: one dose 10^-5 M, 48 h
[45] = tested on: RPMI-8226; type: cell-based; conditions: one dose 10^-5 M, 48 h
[46] = tested on: SF-295; type: cell-based; conditions: one dose 10^-5 M, 48 h
[47] = tested on: NCI-H522; type: cell-based; conditions: one dose 10^-5 M, 48 h
[48] = tested on: HCT-116; type: cell-based; conditions: one dose 10^-5 M, 48 h
[49] = tested on: HOP-92; type: cell-based; conditions: one dose 10^-5 M, 48 h
[50] = tested on: SK-MEL-28; type: cell-based; conditions: one dose 10^-5 M, 48 h
[51] = tested on: UACC-62; type: cell-based; conditions: one dose 10^-5 M, 48 h
[52] = tested on: MDA-MB-468; type: cell-based; conditions: one dose 10^-5 M, 48 h
[53] = tested on: SNB-19; type: cell-based; conditions: one dose 10^-5 M, 48 h
[54] = tested on: CCRF-CEM; type: cell-based; conditions: one dose 10^-5 M, 48 h
[55] = tested on: LOX IMVI; type: cell-based; conditions: one dose 10^-5 M, 48 h
[56] = tested on: HOP-62; type: cell-based; conditions: one dose 10^-5 M, 48 h
[57] = tested on: NCI-H226; type: cell-based; conditions: one dose 10^-5 M, 48 h

Substance: 4-Amino-6–(4-chlorophenyl)-2-mercaptopyrimidine-5-carboximidohydrazide [Compound 2b]
- % growth [1]: 103.87%
- % growth [2]: 107.36%
- % growth [3]: 93.82%
- % growth [4]: 103.95%
- % growth [5]: 112.26%
- % growth [6]: 113.67%
- % growth [7]: 81.00%
- % growth [8]: 119.00%
- % growth [9]: 99.29%
- % growth [10]: 100.22%
- % growth [11]: 99.27%
- % growth [12]: 102.02%
- % growth [13]: 111.23%
- % growth [14]: 107.93%
- % growth [15]: 98.64%
- % growth [16]: 116.23%
- % growth [17]: 109.65%
- % growth [18]: 103.81%
- % growth [19]: 105.50%
- % growth [20]: 114.55%
- % growth [21]: 100.03%
- % growth [22]: 108.46%
- % growth [23]: 111.66%
- % growth [24]: 100.02%
- % growth [25]: 98.85%
- activity on all 60 cancer cell lines tested (in words) ([26]; one dose): weak activity
- Mean % growth ([26]; one dose 10^-5 M, 48 h, mean over all cell lines): 105.07%
- % growth [27]: 98.64%
- % growth [28]: 103.32%
- % growth [29]: 110.21%
- % growth [30]: 98.62%
- % growth [31]: 105.90%
- % growth [32]: 103.90%
- % growth [33]: 99.19%
- % growth [34]: 96.25%
- % growth [35]: 110.09%
- % growth [36]: 109.72%
- % growth [37]: 96.65%
- % growth [38]: 99.89%
- % growth [39]: 99.31%
- % growth [40]: 128.54%
- % growth [41]: 123.58%
- % growth [42]: 103.26%
- % growth [43]: 100.62%
- % growth [44]: 106.23%
- % growth [45]: 94.54%
- % growth [46]: 93.17%
- % growth [47]: 98.92%
- % growth [48]: 119.61%
- % growth [49]: 107.66%
- % growth [50]: 108.56%
- % growth [51]: 100.76%
- % growth [52]: 102.27%
- % growth [53]: 98.41%
- % growth [54]: 100.09%
- % growth [55]: 109.11%
- % growth [56]: 113.92%
- % growth [57]: 121.25%
